Results reported in patent US6864285B1, “Covalent derivatives of alkanolamides of monocarboxylic and dicarboxylic acids functionally active on the CB2 cannabinoid receptor” (Innovet Italia S.r.l., priority 1999, dated 2005).
Converted amounts (≈) assume the structure as drawn. Read-outs that look alike come from different tables or passages of the source.

Columns and labels:
[1] = Solubility in water and in organic solvents (chemical and physical characteristics); conditions: for solubility in water: in words
CB1 receptor = biological target: T1, CB1 receptor (Mus musculus, UniProt P47746); experiment: Binding of [3H]SR141716A to membranes of N18TG2 cells; conditions: cell membranes, 300 pM ligand, 90' at 30° C.; read-out: Ki CB1 Receptor N18TG2 cells Lig. [3H]SR141716A
T1 construct: endogenous in cells; host or cells: mouse N18TG2 neuroblastoma cells
T1 sequence (P47746 whole entry): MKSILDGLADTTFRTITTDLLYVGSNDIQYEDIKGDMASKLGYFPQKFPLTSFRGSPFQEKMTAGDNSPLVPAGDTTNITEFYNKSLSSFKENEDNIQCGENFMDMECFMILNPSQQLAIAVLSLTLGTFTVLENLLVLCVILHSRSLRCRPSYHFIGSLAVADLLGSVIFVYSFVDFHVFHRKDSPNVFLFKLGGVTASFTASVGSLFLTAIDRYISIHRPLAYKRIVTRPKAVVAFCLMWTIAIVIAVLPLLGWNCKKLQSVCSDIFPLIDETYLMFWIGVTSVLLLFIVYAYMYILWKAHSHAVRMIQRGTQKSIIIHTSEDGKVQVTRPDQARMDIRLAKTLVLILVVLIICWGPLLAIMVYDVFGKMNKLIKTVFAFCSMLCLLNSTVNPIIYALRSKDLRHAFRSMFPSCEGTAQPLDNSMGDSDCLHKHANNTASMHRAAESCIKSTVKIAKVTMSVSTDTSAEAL
Text: (§1) Effect of alkanolamide molecules on the binding of the synthetic ligands of the CB2 and CB1 cannabinoid receptors, respectively.
(§2) Rat RBL-2H3+ leukemic basophilic cells, which selectively express the cannabinoid CB2 receptor, and mouse N18TG2 neuroblastoma cells which selectively express the CB1 cannabinoid receptor were used. The cells were cultivated as described above (Facci L. et al. (1995) Proc. Natl: Acad: Sci. U.S.A. 92:: 3376-3380; Bisogno T. et al. 1997 J. Biol. Chem., 272: 3315-3323). WIN 55,212.2 was used as the selectively agonist synthetic ligand for the CB2 receptor.
SR141716A was used as the selective antagonist for the CB1 receptor.
(§3) [^3H]SR141716A (55 Ci/mmol) was supplied by Amersham; [^3H]WIN55,212-2 (43 Ci/mmol) was supplied by NEN. The binding tests were performed with membranes of the cells resuspended in 50 mMol Tris pH 7.0 buffer; 2.5 mMol MgCl2, 0.8 mMol EDTA; 0.05% bovine serum albumin (BSA); 0.01% ethanol, in the presence of 100 μM of phenyl-methyl-sulphonyl fluoride (PMSF-Sigma), with the use, of 300 pM of [^3H]SR141716A and of [^3H]WIN55,212-2, respectively, as the ligand.
(§4) The membranes were incubated for 90′ at 30° C. and filtered on glass microfibre filters (GFC-Whatman) and the radioactivity was detected by liquid scintillation. The specific binding was calculated with the use of either 10 μM SR141716A or 10 μM HU-210.
(§5) The Ki values were calculated by Chang-Prusoff's equation and expressed as concentration μM.

[2] = Lipid/water partition parameter RM from thin-film chromatography on silica gel; assay type: physicochemical; conditions: for ΔRM solvent 1 / RM solvent 1 / RF solvent 1: Solvent 1: 100% ethyl acetate; for ΔRM solvent 1 / ΔRM solvent 2: RM of derivative minus RM of corresponding alkanolamide; for RM solvent 1 / RM solvent 2: RM=log (1/Rf−1); for RF solvent 1 / RF solvent 2: silica gel; for ΔRM solvent 2 / RM solvent 2 / RF solvent 2: Solvent 2: heptane:isopropanol:ethyl acetate:H2O 40:20:50:2
Experimental: The chemical and physical characteristics of the derivatives according to the invention were evaluated by quantitative measurement of the lipid/water partition parameter.
A useful parameter for evaluating the properties of a compound in relation to its possible absorption is in fact constituted by the coefficient of partition between the lipid phase and the aqueous phase, which is considered to be an expression of its lipophilicity and its degree of hydrophilicity. […] For the purpose of evaluating the characteristics of the derivatives of the invention, the partition parameter RM between the lipid and the aqueous phase, extrapolated from thin-film partition chromatography, was calculated; this parameter is commonly used to evaluate the lipophilic characteristics of compounds (Tomlinson E. J. Chromatogr. 1975, 113, 1) and is commonly used, for example, for local anaesthetics, in which a correlation has been shown between this parameter and biological activity (Bachrata M. et al. J. Chromatogr. 1979, 171, 29-36).
The partition parameter RM between the lipid phase and the aqueous phase was calculated both for the derivatives and for the non-substituted alkanolamides, from the Rf value obtained by thin-film chromatography on silica gel (particles of […], mean porosity 60 Å, thickness 0.25 mm on glass plate) in accordance with the formula: RM=log (1/Rf−1) and the ΔRM was obtained from the difference between the RM coefficients of the derivative and of the corresponding alkanolamide.

CB2 receptor [3] = biological target: T2, CB2 receptor (Rattus norvegicus, UniProt Q9QZN9); experiment: Binding of [3H]WIN55,212-2 to membranes of RBL-2H3+ cells; conditions: cell membranes, 300 pM ligand, 90' at 30° C.; read-out: Ki CB2 receptor RBL-2H3 + cells Lig. [3H]WIN55, 212-2
T2 construct: endogenous in cells; host or cells: rat RBL-2H3+ leukemic basophilic cells
T2 sequence (Q9QZN9 1-360): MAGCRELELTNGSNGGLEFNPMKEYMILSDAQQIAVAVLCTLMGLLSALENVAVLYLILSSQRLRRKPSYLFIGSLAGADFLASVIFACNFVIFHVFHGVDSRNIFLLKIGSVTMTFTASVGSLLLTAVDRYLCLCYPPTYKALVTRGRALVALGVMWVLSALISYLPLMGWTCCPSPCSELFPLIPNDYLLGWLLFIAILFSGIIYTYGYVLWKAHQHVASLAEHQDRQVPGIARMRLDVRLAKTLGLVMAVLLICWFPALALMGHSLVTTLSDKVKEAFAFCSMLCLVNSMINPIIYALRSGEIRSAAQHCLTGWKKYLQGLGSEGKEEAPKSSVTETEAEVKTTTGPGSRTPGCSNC
Text: as §1, §2
HU-210 was used as the selective […] for the CB2 receptor.
as §3, §4, §5

CB2 receptor [4] = biological target: T2, CB2 receptor; experiment: Stimulation of cyclic AMP (cAMP) by forskolin in RBL-2H3+ cells; assay type: cell-based; conditions: 1 μM forskolin
Experimental: Effect of alkanolamide molecules on the stimulation of cyclic AMP (cAMP) by forskolin.
The tests were performed with the aim of checking whether the binding of the molecules of the present invention to the CB2 receptor has functional significance.
It is in fact known that the function activation of the CB2 receptor brings about, at intracellular level, inhibition of the enzymatic activity of adenylate cyclase and a reduction in the levels of the second-messenger cAMP, resulting in an increase in the conductance of the channels to potassium and an inhibition of proteic phosphorylation (Childers S. R. et al. Biochem. Parmacol. 1996, 52: 819-827).
The dosages of cAMP were performed on RBL-2H3+ cells flowing together in Petri dishes with six wells (Falcon); the cells were stimulated for 10′ at 37° C. with 1 μM of forskolin (Fluka) in 400 μl of medium without serum, containing 20 mM HEPES, 0.1 mg/ml BSA and 0.1 mM 1-methyl-3-isobutyl xanthine (Sigma) and either ethanol or alkanolamide molecules with or without the addition of HU-210. After incubation, the cells were extracted and the levels of cAMP were evaluated with a suitable Amersham kit in accordance with the producer's method. The data were expressed in IC50 μM.

[5] = ethanol, organic solvent or mixture
[6] = ethyl acetate, organic solvent or mixture
[7] = n-octanol, organic solvent or mixture

| solubility (physchem; [5]) [µg/mL] | Ki (CB1 receptor) [nM] | Ki (CB2 receptor [3]) [nM] | Compound | solubility in water [1] | ΔRM solvent 1 [2] | RM solvent 1 [2] | RF solvent 1 [2] | ΔRM solvent 2 [2] | RM solvent 2 [2] | RF solvent 2 [2] | solubility in organic solvents: ethanol [1] | other results |
| --- | --- | --- | --- | --- | --- | --- | --- | --- | --- | --- | --- | --- |
| 10000 (≈ 26.9 mM) | > 15000 | 6 ± 1.8 | CCCCCCCCCCCCCCCC(=O)NCCOC(=O)OCC [Example 1, N-[2-(ethoxycarbonyl)oxyethyl]hexadecanamide] | slightly soluble | −1.001 | −0.213 | 0.62 | −0.403 | −0.368 | 0.70 | – | solubility (physchem; [6]): 10000 µg/mL (≈ 26.9 mM); solubility (physchem; [7]): 10000 µg/mL (≈ 26.9 mM) |
| 10000 (≈ 25 mM) | – | – | CCCCCCCCCCCCCCCC(=O)NCCOC(=O)OCC(C)C [Example 2, N-[2-(isobutyloxycarbonyl)oxyethyl] hexadecanamide] | slightly soluble | −1.076 | −0.288 | 0.66 | −0.467 | −0.432 | 0.73 | – | solubility (physchem; [6]): 1000 µg/mL (≈ 2.5 mM); solubility (physchem; [7]): 10000 µg/mL (≈ 25 mM) |
| 10000 (≈ 25.9 mM) | – | – | CCCCCCCCCCCCCCCC(=O)NCCCOC(=O)OCC [Example 3, N-[3-(ethoxycarbonyl)oxypropyl]hexadecanamide] | slightly soluble | −1.020 | −0.194 | 0.61 | −0.397 | −0.327 | 0.68 | – | solubility (physchem; [6]): 10000 µg/mL (≈ 25.9 mM); solubility (physchem; [7]): 10000 µg/mL (≈ 25.9 mM) |
| – | – | – | CCCCCCCCCCCCCCCC(=O)NCCOC(=O)NCc1ccccc1 [Example 5] | slightly soluble | −0.736 | 0.052 | 0.47 | −0.304 | −0.269 | 0.65 | – | solubility in organic solvents: ethyl acetate, hot ([1]; ethyl acetate, hot): 10 mg/ml in ethyl; solubility in organic solvents: n-octanol, hot ([1]; n-octanol, hot): 10 mg/ml in ethyl |
| 10000 (≈ 22 mM) | > 15000 | 9 ± 2.5 | CCCCCCCCCCCCCCCC(=O)NCCOC(=O)OCCN1CCCCC1 [Example 7, N-[2-[(2-piperidinoethoxy)carbonyl]oxyethyl] hexadecanamide] | slightly soluble | 0.49 | 1.28 | 0.05 | – | – | – | – | – |
| 10000 | – | – | CCCCCCCCCCCCCCCC(=O)NCCOC(=O)OCCN1CCCCC1.CS(=O)(=O)O [Example 8, N-[2-[(2-piperidinoethoxy)carbonyl]oxyethyl] hexadecanamide methane sulphonate] | – | – | – | – | – | – | – | – | solubility (physchem; DMSO, organic solvent or mixture): 10000 µg/mL; solubility (physchem; water): 10000 µg/mL |
| – | – | – | CCCCCCCCCCCCCCCC(=O)NCCOC1CCCO1 (centres unmarked) [Example 9, tetrahydrofuranyl ether of N-(2-hydroxyethyl) hexadecanamide] | slightly soluble | −0.630 | 0.158 | 0.41 | −0.247 | −0.213 | 0.62 | 10 mg/ml in ethanol | – |
| – | – | – | O=C(CCCCCCCC(=O)NCCOC1CCCO1)NCCOC1CCCO1 (centres unmarked) [Example 10, tetrahydrofuranyl ether of N,N^1-bis(2-hydroxyethyl) nonandiamide] | – | −0.424 | −0.035 | 0.52 | −0.584 | 0.105 | 0.44 | 10 mg/ml in ethanol | – |
| – | – | – | CCCCCCCCCCCCCCCC(=O)NCCOC1CCCCO1 (centres unmarked) [Example 11, tetrahydropyranyl ether of N-(2-hydroxyethyl) hexadecanamide] | slightly soluble | 0.666 | 0.122 | 0.43 | −0.304 | −0.269 | 0.65 | – | solubility in organic solvents: ethyl acetate ([1]; ethyl acetate): 10 mg/ml in ethyl; solubility in organic solvents: n-octanol ([1]; n-octanol): 10 mg/ml in ethyl |
| – | – | – | O=C(CCCCCCCC(=O)NCCOC1CCCCO1)NCCOC1CCCCO1 (centres unmarked) [Example 12, tetrahydropyranyl ether of N,N^1-bis(2-hydroxyethyl) nonandiamide] | – | −0.494 | −0.105 | 0.56 | −0.706 | −0.017 | 0.51 | 10 mg/ml in ethanol | – |
| – | – | – | CCCCCCCC/C=C\CCCCCCCC(=O)NCCOC(=O)OCC [Example 13, N-[2-(ethoxycarbonyl)oxyethyl] oleoylamide] | slightly soluble | −0.984 | −0.231 | 0.63 | −0.365 | −0.347 | 0.69 | 10 mg/ml in ethanol, | – |
| – | > 15000 | > 15000 | CCCCC1C(=O)N(c2ccccc2)N(c2ccccc2)C1=O [phenyl butazone, reference compound] | – | – | – | – | – | – | – | – | – |

| Compound | solubility (physchem; [5]) [µg/mL] | Ki (CB1 receptor) [nM] | Ki (CB2 receptor [3]) [nM] | solubility in water [1] | ΔRM solvent 1 [2] | RM solvent 1 [2] | RF solvent 1 [2] | ΔRM solvent 2 [2] | RM solvent 2 [2] | RF solvent 2 [2] | solubility in organic solvents: ethanol [1] | other results |
| --- | --- | --- | --- | --- | --- | --- | --- | --- | --- | --- | --- | --- |
| N,N^1-bis[2-(ethoxycarbonyl)oxyethyl] nonandiamide [Example 4] | – | > 15000 | 2 ± 0.9 | slightly soluble | −0.866 | −0.477 | 0.75 | −0.723 | −0.035 | 0.52 | 10 mg/ml in ethanol, | IC50 (CB2 receptor [4]; 10' at 37° C., read-out: IC50 on forskolin-stimulated cAMP): 1800 nM; IC50 (CB2 receptor [4]; + HU-210 (0.5 μM), read-out: IC50 on forskolin-stimulated cAMP with HU-210): > 20000 nM |
